Measurements: PubChem BioAssay (NCI)
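Step 1: Grow cells in 96-well plates. Step 2: Expose to compound for 48 hours at 5 concentrations. Step 3: Interpolate endpoints linearly; if unreached, use highest concentration. The concentration for 50% growth inhibition is given as GI50. The concentration for full growth arrest is given as TGI.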

What was measured:
Test in all cases: NCI anticancer screen, dose series, 48 h
SR leukemia = tested on: SR leukemia
SNB-19 CNS = tested on: SNB-19 CNS
T-47D breast = tested on: T-47D breast
M14 melanoma = tested on: M14 melanoma
KM12 colon = tested on: KM12 colon
MCF7 breast = tested on: MCF7 breast
COLO 205 colon = tested on: COLO 205 colon
OVCAR-3 ovarian = tested on: OVCAR-3 ovarian
HOP-92 NSCLC = tested on: HOP-92 NSCLC
A549 NSCLC = tested on: A549 NSCLC

Structure (SMILES) | GI50 (SR leukemia) | TGI (SR leukemia) | GI50 (SNB-19 CNS) | TGI (SNB-19 CNS) | GI50 (T-47D breast) | TGI (T-47D breast) | GI50 (M14 melanoma) | TGI (M14 melanoma) | GI50 (KM12 colon) | TGI (KM12 colon) | GI50 (MCF7 breast) | TGI (MCF7 breast) | GI50 (COLO 205 colon) | TGI (COLO 205 colon) | GI50 (OVCAR-3 ovarian) | TGI (OVCAR-3 ovarian) | GI50 (HOP-92 NSCLC) | TGI (HOP-92 NSCLC) | GI50 (A549 NSCLC) | TGI (A549 NSCLC)
Cc1cccnc1CNC1CC(NCc2ncccc2C)CC(NCc2ncccc2C)C1 (stereo unspecified) | 0.406 µM | 2.09 µM | 2.04 µM | 4.03 µM | 1.94 µM | 3.89 µM | 1.96 µM | 4.35 µM | 4.51 µM | 20.4 µM | 2.39 µM | 5.21 µM | 2.03 µM | 4.25 µM | 3.1 µM | 8.94 µM | 1.1 µM | 2.3 µM | 2.01 µM | 4.21 µM
CCN(CC)c1ccc2nc3c4ccccc4c(=NC(=O)c4ccccc4-c4c5ccc(N(CC)CC)cc5[o+]c5cc(N(CC)CC)ccc45)cc-3oc2c1 | 2.74 µM | 20.5 µM | 2.3 µM | 6.64 µM | 5.25 µM | 17.3 µM | 2.47 µM |  | 2.25 µM | 7.94 µM | 1.59 µM |  | 1.59 µM | 3.83 µM | 0.85 µM | 6.26 µM | 3.51 µM | 19.4 µM | 1.83 µM | 5.08 µM
CC(C)CNc1nc(N=[N+]=[N-])nc(NCC(C)C)n1 | > 10 µM | > 10 µM | > 10 µM | > 10 µM | > 10 µM | > 10 µM | > 10 µM | > 10 µM | > 10 µM | > 10 µM | > 10 µM | > 10 µM | > 10 µM | > 10 µM | > 10 µM | > 10 µM | 7.89 µM | > 10 µM | > 10 µM | > 10 µM
Nc1cccc2nsnc12 |  | > 63.5 µM |  | > 100 µM |  | > 100 µM |  | > 100 µM |  | > 100 µM |  | > 100 µM |  | > 100 µM |  | > 100 µM |  | > 100 µM |  | > 100 µM
Cc1cc2c(C(C)C)c(O)c(O)c(C=O)c2c(O)c1-c1c(C)cc2c(C(C)C)c(O)c(O)c(C=O)c2c1O (tested in a mixture with another compound) | 1.46 µM | 17.8 µM | 0.686 µM | 9.47 µM | 1.77 µM | 7.03 µM | 1.5 µM | 3.61 µM | 0.394 µM | 1.51 µM | 1.18 µM | 6.9 µM | 1.36 µM | 2.87 µM | 1.03 µM | 2.69 µM | 0.223 µM | 0.909 µM | 0.468 µM | 2.38 µM
N#CC[C@H](C1CCCC1)n1cc(-c2ncnc3[nH]ccc23)cn1 | 4.04 µM | 41.6 µM | 35.2 µM | > 100 µM | 23.8 µM | > 91.1 µM | 30.3 µM | > 88.6 µM | 2.71 µM | > 62.6 µM | 17.6 µM | > 86.8 µM | 24.6 µM | 67.1 µM | 24.2 µM | > 67.3 µM | 6.81 µM | > 100 µM | 30.1 µM | > 100 µM
OC(c1ccccc1)c1c(-c2ccccc2)oc(-c2ccccc2)c1C(O)c1ccccc1 (stereo unspecified) |  | 62.9 µM |  | 28.6 µM |  | 23.3 µM |  | 21.9 µM |  | 18.9 µM |  | 16.6 µM |  | 19.4 µM |  | 18.7 µM |  | 26.5 µM |  | 20.5 µM
N#CSCC(=O)c1ccc(Cl)cc1 | 0.19 µM | > 24.6 µM | 14.1 µM | > 73 µM | 7.84 µM | 67.9 µM | 3.4 µM | 15.1 µM | 2.59 µM | 7.33 µM | 2.53 µM | 13.6 µM | 2.65 µM | 7.94 µM | 2.33 µM | 5.26 µM | 6.02 µM | 29 µM | 9.14 µM | > 49.7 µM
O=C(CC1(O)C(=O)Nc2c(Cl)ccc(Cl)c21)c1ccc(C2CC2)cc1 (stereo unspecified) | 0.106 µM | 15.3 µM | 1.13 µM | 16.9 µM | 1.56 µM | 27.1 µM | 0.422 µM | 3.25 µM | 0.445 µM | 15.9 µM | 0.322 µM | 14.5 µM | 0.801 µM | 3.06 µM | 3.46 µM | 16.6 µM | 0.769 µM | 14.8 µM | 2.09 µM | 19.8 µM
CN1CCN(c2ccc3nc4c(nc3c2C(F)(F)F)C(=O)c2ncccc2C4=O)CC1 | 0.446 µM | > 100 µM | 1.66 µM | 5.7 µM | 1.96 µM | 4.62 µM | 1.32 µM | 2.86 µM | 2.28 µM | 10.9 µM | 0.316 µM | 2.09 µM | 1.45 µM | 3.29 µM | 0.379 µM | 1.41 µM | 2.49 µM | 5.65 µM | 1.21 µM | 3.92 µM
CNCCOc1nc2c3cnccc3cc(-c3cc(OC)c(OC)c(OC)c3)c2c2ccncc12 | < 0.01 µM |  | 0.0253 µM | 0.349 µM | 0.0296 µM | 0.48 µM | 0.0233 µM | 0.147 µM | 0.0536 µM | 2.52 µM | < 0.01 µM | 0.275 µM | 0.0575 µM | 0.698 µM | 0.0906 µM | 0.464 µM | 0.0168 µM | 0.1 µM | 0.01 µM | 0.101 µM
O=C(NO)c1cnc(N2CCN(S(=O)(=O)c3ccc4ccccc4c3)CC2)nc1 | 0.0387 µM | > 90.7 µM | 0.238 µM | 11.8 µM | 0.0227 µM | 1.79 µM | 0.0468 µM | 5.75 µM | 0.0759 µM | 0.412 µM | 0.0369 µM | > 76 µM | 0.0564 µM | 0.294 µM | 0.0955 µM | 0.386 µM | 0.0202 µM | 0.0857 µM | 0.0459 µM | 0.37 µM
C[C@@H]1CN2[C@H]3[C@@H]1CC[C@]31CCC(=O)O[C@]1(C)[C@@H]1CC[C@H]3CCC=C3[C@@H]12 | > 70 µM | > 70 µM | > 70 µM | > 70 µM | > 70 µM | > 70 µM | > 70 µM | > 70 µM | > 70 µM | > 70 µM | > 70 µM | > 70 µM | > 70 µM | > 70 µM | > 70 µM | > 70 µM | 38.4 µM | > 70 µM | > 70 µM | > 70 µM
CCCCCCC1N=C(N)N=C(N)N1c1ccc(Cl)cc1 (stereo unspecified) | 3 µM | 11.9 µM | 8.62 µM | 24.9 µM | 20 µM | 70.5 µM | 3.04 µM | 23.5 µM | 10.4 µM | 22.9 µM | 11.4 µM | 25.6 µM | 12.5 µM | 26.7 µM | 12.2 µM | 32.6 µM | 2.62 µM | 22.1 µM | 4.83 µM | > 100 µM
CC(=O)OCC(=O)C1(O)C(C)CC2C3C=C(C)C4=Cc5c(cnn5-c5ccccc5)CC4(C)C3C(O)CC21C (stereo unspecified) | 1.63 µM | > 27.2 µM | 2.31 µM | 11.9 µM | 2.63 µM | 9.39 µM | 1.76 µM | 3.69 µM | 1.32 µM | 2.78 µM | 1.47 µM | 5.22 µM | 1.72 µM | 3.26 µM | 1.67 µM | 3.96 µM | 0.0261 µM | 7.39 µM | 1.34 µM | 13.5 µM
COc1ccc(NC(=O)O[C@H]2[C@H](O[C@H]3[C@@H](O)COC(O[C@H]4C[C@H]5[C@@H]6CC=C7C[C@@H](O)CC[C@]7(C)[C@H]6CC[C@]5(C)[C@H]4[C@H](C)C(=O)CCC(C)C)[C@@H]3OC(C)=O)OC[C@@H](O)[C@@H]2O)cc1 (stereo partly specified) | < 0.01 µM | 29.9 µM | 0.0189 µM | 3.36 µM | < 0.01 µM | 14.7 µM | < 0.01 µM | 0.0203 µM | 0.0323 µM | 16.4 µM | < 0.01 µM | 1.47 µM | 0.0105 µM | 0.0363 µM | 1.11 µM | 31.5 µM | < 0.01 µM | 2.03 µM | < 0.01 µM | 20.5 µM
O=C1c2ccccc2C(=O)c2c(NC(=O)c3ccc4c5c(ncnc35)-c3ccccc3C4=O)cccc21 |  | > 100 µM |  | > 100 µM |  | > 100 µM |  | > 100 µM |  | > 100 µM |  | > 100 µM |  | > 100 µM |  | > 100 µM |  | > 100 µM |  | > 100 µM
CSc1ccc(C2=NN(C(=O)c3ccc(N)cc3)C(c3ccc(F)cc3)C2)cc1 (stereo unspecified) | 1.52 µM | 4.31 µM | 8.94 µM | 22.3 µM | 6.45 µM | 27.6 µM | 4.24 µM | 15.1 µM | 2.03 µM | 4.55 µM | 3.42 µM | 15.2 µM | 7.45 µM | 22.7 µM | 4.54 µM | 17.2 µM | 2.36 µM | 17.7 µM | 13.7 µM | 32.7 µM
CS(=O)(=O)c1nc(Cl)c(Cl)c(C#N)c1Cl |  | > 36.4 µM |  | 36 µM |  | 4.83 µM |  | 3.64 µM |  | 17.6 µM |  | 13.2 µM |  | 3.08 µM |  | 4.73 µM |  | 3.73 µM |  | 40.4 µM
COC(=O)Nc1nc2ccc(Sc3ccccc3)cc2[nH]1 | 0.035 µM |  | 0.267 µM | 28.9 µM | 0.436 µM | > 81.2 µM | 0.0892 µM | 1.43 µM | 0.0634 µM | 22.3 µM | 0.0666 µM | 26 µM | 0.188 µM | 0.533 µM | 0.123 µM | 0.421 µM | 0.177 µM | 7 µM | 0.208 µM | 5.96 µM
O=[N+]([O-])c1ccc(-c2ccccc2)c([As](=O)(O)O)c1 | 10.3 µM | 57.3 µM | 18.7 µM | > 100 µM | 4.35 µM | 49.5 µM | 26.6 µM | > 100 µM | 39.4 µM | > 100 µM | 3.75 µM | 16.1 µM | 12.8 µM | 27.4 µM | 10.4 µM | 29.3 µM | 13.5 µM | 95.4 µM | 27.2 µM | > 100 µM
